Experimental data from publication PMC7802075 (ACS Infectious Diseases, 2020).
Where a name gives a salt, the structure may show the parent alone. Read-outs that look alike come from different tables or passages of the source.

Biological target: T1, LmjIPCS (inositol phosphorylceramide synthase from L. major) (Leishmania major, UniProt E9AFX2)
T1 sequence (E9AFX2 1-338): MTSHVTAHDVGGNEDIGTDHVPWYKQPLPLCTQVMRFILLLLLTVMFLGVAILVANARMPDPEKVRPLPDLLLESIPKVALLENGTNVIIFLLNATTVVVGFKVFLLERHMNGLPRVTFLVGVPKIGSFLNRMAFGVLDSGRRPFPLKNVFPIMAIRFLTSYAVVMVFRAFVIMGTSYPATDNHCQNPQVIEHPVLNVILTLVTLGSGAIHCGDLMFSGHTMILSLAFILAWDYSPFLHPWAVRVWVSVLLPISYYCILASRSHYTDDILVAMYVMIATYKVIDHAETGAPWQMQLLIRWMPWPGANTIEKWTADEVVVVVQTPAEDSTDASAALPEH
Assay: biochemical
Assay type: biochemical
Set-up: inhibition: dose or concentration left out as unconfirmed
Conditions: for inhibition at 20000 µM: read-out: 20mM inhibition LmjIPCS; for inhibition: read-out: inhibition LmjIPCS

[1] = NINDS set screen, single concentration printed as 20mM
[2] = screening of NINDS set, sheet Screen 1

Structure (SMILES) | 20mM inhibition LmjIPCS | inhibition at 20000 µM | further results
N[C@H](C(=O)O)[C@@H]1CC(Cl)=NO1 [ACIVICIN] | 39% | – | –
CCCCCCc1ccc(O)cc1O.Nc1c2ccccc2nc2ccccc12 [ACRISORCIN] | 30% | – | –
Nc1nc2c(ncn2COCCO)c(=O)[nH]1 [ACYCLOVIR] | – | 5% | –
Nc1ncnc2c1ncn2[C@@H]1O[C@H](CO)[C@@H](O)[C@H]1O [ADENOSINE] | 41% | – | –
CCN(CC)CCOC(=O)C(c1ccccc1)c1ccccc1 [ADIPHENINE] | – | – | 20mM inhibition LmjIPCS [1]: 51%
CNC[C@H](O)c1ccc(O)c(O)c1.O=C(O)C(O)C(O)C(=O)O [ADRENALINE BITARTRATE] | – | – | 20mM inhibition LmjIPCS (NINDS set screen, single concentration 20mM as printed): -5.34%
O=c1ccc2cc(O[C@@H]3O[C@H](CO)[C@@H](O)[C@H](O)[C@H]3O)c(O)cc2o1 [AESCULIN] | 10% | – | –
NCCCCN=C(N)N [AGMATINE SULFATE] | – | 24% | –
CC[C@H]1[C@@H]2C[C@H]3[C@@H]4N(C)c5ccccc5[C@]45C[C@@H]([C@H]2[C@H]5O)N3[C@@H]1O [AJMALINE] | – | 23% | –
CC[C@@]1(O)C[C@H](O[C@H]2C[C@H](N(C)C)[C@H](O)[C@H](C)O2)c2c(cc3c(c2O)C(=O)c2c(O)cccc2C3=O)[C@H]1C(=O)OC [AKLAVINE] | 59% | – | –
NC(=O)c1ccc([N+](=O)[O-])cc1Cl [AKLOMIDE] | – | – | inhibition [2]: 4%
CC(N)C(=O)OC(C)(C)Cc1ccc(Cl)cc1 (stereo not shown) [ALAPROCLATE] | 36% | – | –
CCCCC(CC)CNC(=N)NC(=N)NCCCCCCNC(=N)NC(=N)NCC(CC)CCCC (stereo not shown) [ALEXIDINE] | – | – | 20mM inhibition LmjIPCS [1]: 47%
COc1cc2nc(N(C)CCCNC(=O)C3CCCO3)nc(N)c2cc1OC (stereo not shown) [ALFLUZOCIN] | 8% | – | –
NC(=O)NC1NC(=O)NC1=O (stereo not shown) [ALLANTOIN] | – | 18% | –
Oc1ncnc2[nH]ncc12 [ALLOPURINOL] | 56% | – | –
O=C1NC(=O)C(=O)C(=O)N1 [ALLOXAN] | – | -1.11% | –
CN(C)CCc1c[nH]c2ccc(CS(=O)(=O)N3CCCC3)cc12 [ALMOTRIPTAN] | – | 5% | –
C=CCSCC1Nc2cc(Cl)c(S(N)(=O)=O)cc2S(=O)(=O)N1 (stereo not shown) [ALTHIAZIDE] | – | – | inhibition (NINDS set screen): 11%
CN(C)c1nc(N(C)C)nc(N(C)C)n1 [ALTRETAMINE] | – | 4% | –
NC12CC3CC(CC(C3)C1)C2 [AMANTADINE] | – | 30% | –

Structure (SMILES) | 20mM inhibition LmjIPCS | inhibition at 20000 µM | further results
Nc1c(Br)cc(Br)cc1CN[C@H]1CC[C@H](O)CC1 [AMBROXOL] | 53% | – | –
CC(=O)OCC(=O)[C@@]12OC3(CCCC3)O[C@@H]1C[C@H]1[C@@H]3CCC4=CC(=O)C=C[C@]4(C)[C@@]3(F)[C@@H](O)C[C@@]12C [AMCINONIDE] | – | 11% | –
NCC[C@H](O)C(=O)N[C@@H]1C[C@H](N)[C@@H](O[C@H]2O[C@H](CN)[C@@H](O)[C@H](O)[C@H]2O)[C@H](O)[C@H]1O[C@H]1O[C@H](CO)[C@@H](O)[C@H](N)[C@H]1O [AMIKACIN] | – | – | inhibition (NINDS set screen): 21%
N=C(N)NC(=O)c1nc(Cl)c(N)nc1N [AMILORIDE] | 52% | – | –
Nc1c2ccccc2nc2ccccc12 [AMINACRINE] | – | -11% | –
NC1(C(=O)O)CC1 [AMINOCYCLOPROPANECARBOXYLIC ACID] | – | – | 20mM inhibition LmjIPCS (single concentration 20mM as printed, screening of NINDS set, sheet Screen 1): 9%
CCC1(c2ccc(N)cc2)CCC(=O)NC1=O (stereo not shown) [AMINOGLUTETHIMIDE] | 56% | – | –
Nc1ccc(C(=O)NCC(=O)O)cc1 [AMINOHIPPURIC ACID] | – | – | inhibition [2]: 7%
NCC(O)CC(=O)O (stereo not shown) [AMINOHYDROXYBUTYRIC ACID] | 4% | – | –
NCC(=O)CCC(=O)O [AMINOLEVULINIC ACID] | – | – | inhibition: 28%
Cc1c(N(C)C)c(=O)n(-c2ccccc2)n1C [AMINOPHENAZONE] | – | – | inhibition: -19%
Nc1nc(N)c2nc(CNc3ccc(C(=O)N[C@@H](CCC(=O)O)C(=O)O)cc3)cnc2n1 [AMINOPTERIN] | – | 0.247% | –
Nc1ccncc1 [AMINOPYRIDINE] | -4.7% | – | –
Nc1ccc(C(=O)O)c(O)c1 [AMINOSALICYLATE SODIUM] | 43% | – | –
Nc1nccs1 [AMINOTHIAZOLE] | – | -32% | –
CN(C)CCCO[C@@H]1[C@H]2OC(C)(C)O[C@H]2O[C@@H]1[C@H](O)CO [AMIPRILOSE] | – | – | inhibition [2]: 4%
Cc1ccc(/N=C/N(C)/C=N/c2ccc(C)cc2C)c(C)c1 [AMITRAZ] | 55% | – | –
CCN(CC)Cc1cc(Nc2ccnc3cc(Cl)ccc23)ccc1O [AMODIAQUINE] | 59% | – | –
CC1(C)S[C@@H]2[C@H](NC(=O)[C@H](N)c3ccc(O)cc3)C(=O)N2[C@H]1C(=O)O [AMOXICILLIN] | 41% | – | –
CC1(C)S[C@@H]2[C@H](NC(=O)[C@H](N)c3ccccc3)C(=O)N2[C@H]1C(=O)O [AMPICILLIN] | – | – | inhibition: 29%
CCCc1ncc(C[n+]2ccccc2C)c(N)n1 [AMPROLIUM] | 44% | – | –

Structure (SMILES) | 20mM inhibition LmjIPCS | inhibition at 20000 µM | further results
N#C[C@H](O[C@@H]1O[C@H](CO[C@@H]2O[C@H](CO)[C@@H](O)[C@H](O)[C@H]2O)[C@@H](O)[C@H](O)[C@H]1O)c1ccccc1 [AMYGDALIN] | – | -4% | –
C[C@]12CC[C@@H](OS(=O)(=O)O)C[C@@H]1CC[C@@H]1[C@@H]2CC[C@]2(C)C(=O)CC[C@@H]12 [ANDROSTERONE Sulfate] | 33% | – | –
COc1ccc(C2C(=O)c3ccccc3C2=O)cc1 [ANISINDIONE] | – | – | inhibition [2]: 10%
CN1[C@H]2C[C@H](OC(=O)[C@H](CO)c3ccccc3)C[C@@H]1[C@@H](O)C2 [ANISODAMINE] | 16% | – | –
c1ccc(CN(CC2=NCCN2)c2ccccc2)cc1 [ANTAZOLINE] | 61% | – | –
O=C1c2ccccc2C(=O)c2ccccc21 [ANTHRAQUINONE] | – | 10% | –
Cc1cc(=O)n(-c2ccccc2)n1C [ANTIPYRINE] | 36% | – | –
O=c1cc(-c2ccc(O)cc2)oc2cc(O)cc(O)c12 [APIGENIN] | 59% | – | –
CN1CCc2cccc3c2[C@H]1Cc1ccc(O)c(O)c1-3 [APOMORPHINE] | – | – | 20mM inhibition LmjIPCS [1]: 47%
CN[C@@H]1[C@@H](O[C@H]2O[C@H](CO)[C@@H](N)[C@H](O)[C@H]2O)OC2C[C@@H](N)[C@@H](O[C@H]3[C@H](O)[C@@H](O)[C@H](N)C[C@@H]3N)OC2[C@@H]1O (stereo partly shown) [APRAMYCIN] | – | 0.0509% | –
COC(=O)C1=CCCN(C)C1 [ARECOLINE] | – | -3.74% | –
C[C@@H]1CC[C@H]2[C@@H](C)C(=O)O[C@@H]3O[C@@]4(C)CC[C@@H]1[C@]32OO4 [ARTEMISININ] | – | – | inhibition: 1.06%
CC(=O)Oc1ccccc1C(=O)O [ASPIRIN] | – | 23% | –
CC(C)NCC(O)COc1ccc(CC(N)=O)cc1 (stereo not shown) [ATENOLOL] | – | -6% | –
CC(C)c1c(C(=O)Nc2ccccc2)c(-c2ccccc2)c(-c2ccc(F)cc2)n1CC[C@@H](O)C[C@@H](O)CC(=O)O [ATORVASTATIN] | – | 9.48% | –
O=C1C(O)=C([C@H]2CC[C@H](c3ccc(Cl)cc3)CC2)C(=O)c2ccccc21 [ATOVAQUONE] | – | – | 20mM inhibition LmjIPCS [1]: 46%
C=C1[C@@H]2CC[C@H]3[C@]4(C)C[C@H](O[C@@H]5O[C@H](CO)[C@@H](OS(=O)(=O)O)[C@H](OS(=O)(=O)O)[C@H]5OC(=O)CC(C)C)C[C@@H](C(=O)O)[C@H]4CC[C@]3(C2)[C@H]1O [ATRACTYLOSIDE] | – | 18% | –
CN1[C@@H]2CC[C@H]1C[C@@H](OC(=O)C(CO)c1ccccc1)C2 (stereo partly shown) [ATROPINE] | – | 26% | –
COc1ccc(C(=O)CC(=O)c2ccc(C(C)(C)C)cc2)cc1 [AVOBENZONE] | – | 0.941% | –
